Results reported in US20260262643A1, “HERBICIDAL BENZOXAZINES” (FMC CORPORATION, priority 2022, published 2026).

Columns and labels:
kochia [1] = assay: Test C postemergence; assay type: in vivo, Bassia scoparia; conditions: 10 days, 0 to 100 scale (0 no effect, 100 complete control)
Outline: (§1)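 Soil-applied (pre) and foliar (post, 1–2 leaf, 2–10 cm) sprays; surfactant-containing non-phytotoxic solvent vehicle; loam/sand substrate. Readout: visual % control at 10 d, greenhouse, versus untreated.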

foxtail, giant [2] = assay: Test C postemergence; assay type: in vivo, Setaria faberi; conditions: 10 days, 0 to 100 scale (0 no effect, 100 complete control)
Outline: as §1

wheat [3] = assay: Test C postemergence; assay type: in vivo, Triticum aestivum; conditions: 10 days, 0 to 100 scale (0 no effect, 100 complete control)
Outline: as §1

ragweed [4] = assay: Test C postemergence; assay type: in vivo, Ambrosia artemisiifolia; conditions: 10 days, 0 to 100 scale (0 no effect, 100 complete control)
Outline: as §1

soybean [5] = assay: Test C postemergence; assay type: in vivo, Glycine max; conditions: 10 days, 0 to 100 scale (0 no effect, 100 complete control)
Outline: as §1

galium = assay: Test C postemergence; assay type: in vivo, Galium aparine; conditions: 10 days, 0 to 100 scale (0 no effect, 100 complete control)
Outline: as §1

soybean [6] = assay: Test C preemergence; assay type: in vivo, Glycine max
Outline: as §1

pigweed, palmer [7] = assay: Test C preemergence; assay type: in vivo, Amaranthus palmeri
Outline: as §1

foxtail, giant [8] = assay: Test C preemergence; assay type: in vivo, Setaria faberi
Outline: as §1

oat, wild [9] = assay: Test C postemergence; assay type: in vivo, Avena fatua; conditions: 10 days, 0 to 100 scale (0 no effect, 100 complete control)
Outline: as §1

horseweed = assay: Test C postemergence; assay type: in vivo, Erigeron canadensis; conditions: 10 days, 0 to 100 scale (0 no effect, 100 complete control)
Outline: as §1

ducksalad = assay: Test D flooded paddy test; assay type: in vivo, Heteranthera limosa; conditions: 250 g ai/ha, applied to paddy water, visual rating after 13 to 14 days, scale 0 to 100 (0 no effect, 100 complete control)
Outline: (§2)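 Post-flood water application at the 2-leaf stage; 3 cm flood depth kept constant; visual control rating 0–100 after 13–14 days greenhouse growth.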

barnyardgrass [10] = assay: Test C postemergence; assay type: in vivo, Echinochloa crusgalli; conditions: 10 days, 0 to 100 scale (0 no effect, 100 complete control)
Outline: as §1

barnyardgrass [11] = assay: Test C preemergence; assay type: in vivo, Echinochloa crusgalli
Outline: as §1

blackgrass [12] = assay: Test C postemergence; assay type: in vivo, Alopecurus myosuroides; conditions: 10 days, 0 to 100 scale (0 no effect, 100 complete control)
Outline: as §1

sedge, umbrella = assay: Test D flooded paddy test; assay type: in vivo, Cyperus difformis; conditions: 250 g ai/ha, applied to paddy water, visual rating after 13 to 14 days, scale 0 to 100 (0 no effect, 100 complete control)
Outline: as §2

corn [13] = assay: Test C preemergence; assay type: in vivo, Zea mays
Outline: as §1

barnyardgrass [14] = assay: Test D flooded paddy test; assay type: in vivo, Echinochloa crus-galli; conditions: 250 g ai/ha, applied to paddy water, visual rating after 13 to 14 days, scale 0 to 100 (0 no effect, 100 complete control)
Outline: as §2

blackgrass [15] = assay: Test C preemergence; assay type: in vivo, Alopecurus myosuroides
Outline: as §1

ragweed [16] = assay: Test C preemergence; assay type: in vivo, Ambrosia artemisiifolia
Outline: as §1

pigweed, palmer [17] = assay: Test C postemergence; assay type: in vivo, Amaranthus palmeri; conditions: 10 days, 0 to 100 scale (0 no effect, 100 complete control)
Outline: as §1

wheat [18] = assay: Test C preemergence; assay type: in vivo, Triticum aestivum
Outline: as §1

oat, wild [19] = assay: Test C preemergence; assay type: in vivo, Avena fatua
Outline: as §1

rice = assay: Test D flooded paddy test; assay type: in vivo, Oryza sativa; conditions: 250 g ai/ha, applied to paddy water, visual rating after 13 to 14 days, scale 0 to 100 (0 no effect, 100 complete control)
Outline: as §2

kochia [20] = assay: Test C preemergence; assay type: in vivo, Bassia scoparia
Outline: as §1

ryegrass, Italian [21] = assay: Test C postemergence; assay type: in vivo, Lolium multiflorum; conditions: 10 days, 0 to 100 scale (0 no effect, 100 complete control)
Outline: as §1

corn [22] = assay: Test C postemergence; assay type: in vivo, Zea mays; conditions: 10 days, 0 to 100 scale (0 no effect, 100 complete control)
Outline: as §1

ryegrass, Italian [23] = assay: Test C preemergence; assay type: in vivo, Lolium multiflorum
Outline: as §1

[24] = 500 g ai/ha, preemergence, 0 to 100 scale (0 no effect, 100 complete control)
[25] = Preemergence, 125 g ai/ha, 0 to 100 scale, 0 no effect, 100 complete control

Compound: Cc1ncnn1-c1cc(C(=O)N2CC(C(F)(F)F)Oc3c(Cl)cccc32)ccn1 (racemic) [Compound 333]
- Plant response rating, Kochia (kochia [1]; 500 g ai/ha, postemergence): 50
- Plant response rating, Kochia (kochia [1]; Postemergence, 125 g ai/ha): 30
- Plant response rating, Foxtail, Giant (foxtail, giant [2]; 500 g ai/ha, postemergence): 40
- Plant response rating, Foxtail, Giant (foxtail, giant [2]; Postemergence, 125 g ai/ha): 20
- Plant response rating, Wheat (wheat [3]; 500 g ai/ha, postemergence): 10
- Plant response rating, Wheat (wheat [3]; Postemergence, 125 g ai/ha): 10
- Plant response rating, Ragweed (ragweed [4]; 500 g ai/ha, postemergence): 10
- Plant response rating, Ragweed (ragweed [4]; Postemergence, 125 g ai/ha): 0
- Plant response rating, Soybean (soybean [5]; 500 g ai/ha, postemergence): 50
- Plant response rating, Soybean (soybean [5]; Postemergence, 125 g ai/ha): 50
- Plant response rating, Galium (galium; 500 g ai/ha, postemergence): 60
- Plant response rating, Galium (galium; Postemergence, 125 g ai/ha): 0
- Soybean plant response rating (soybean [6]; [24]): 0
- Plant response rating, Soybean (soybean [6]; [25]): 0
- Pigweed, Palmer plant response rating (pigweed, palmer [7]; [24]): 30
- Plant response rating, Pigweed, Palmer (pigweed, palmer [7]; [25]): 0
- Foxtail, Giant plant response rating (foxtail, giant [8]; [24]): 80
- Plant response rating, Foxtail, Giant (foxtail, giant [8]; [25]): 0
- Plant response rating, Oat, Wild (oat, wild [9]; 500 g ai/ha, postemergence): 0
- Plant response rating, Oat, Wild (oat, wild [9]; Postemergence, 125 g ai/ha): 0
- Plant response rating, Horseweed (horseweed; 500 g ai/ha, postemergence): 0
- Plant response rating, Horseweed (horseweed; Postemergence, 125 g ai/ha): 0
- Plant response rating, Ducksalad (Flood) (ducksalad): 0
- Plant response rating, Barnyardgrass (barnyardgrass [10]; 500 g ai/ha, postemergence): 10
- Plant response rating, Barnyardgrass (barnyardgrass [10]; Postemergence, 125 g ai/ha): 10
- Barnyardgrass plant response rating (barnyardgrass [11]; [24]): 0
- Plant response rating, Barnyardgrass (barnyardgrass [11]; [25]): 0
- Plant response rating, Blackgrass (blackgrass [12]; 500 g ai/ha, postemergence): 20
- Plant response rating, Blackgrass (blackgrass [12]; Postemergence, 125 g ai/ha): 0
- Plant response rating, Sedge, Umbrella (Flood) (sedge, umbrella): 0
- Corn plant response rating (corn [13]; [24]): 0
- Plant response rating, Corn (corn [13]; [25]): 0
- Plant response rating, Barnyardgrass (Flood) (barnyardgrass [14]): 0
- Blackgrass plant response rating (blackgrass [15]; [24]): 0
- Plant response rating, Blackgrass (blackgrass [15]; [25]): 0
- Ragweed plant response rating (ragweed [16]; [24]): 0
- Plant response rating, Ragweed (ragweed [16]; [25]): 0
- Plant response rating, Pigweed, Palmer (pigweed, palmer [17]; 500 g ai/ha, postemergence): 20
- Plant response rating, Pigweed, Palmer (pigweed, palmer [17]; Postemergence, 125 g ai/ha): 0
- Wheat plant response rating (wheat [18]; [24]): 0
- Plant response rating, Wheat (wheat [18]; [25]): 0
- Oat, Wild plant response rating (oat, wild [19]; [24]): 0
- Plant response rating, Oat, Wild (oat, wild [19]; [25]): 0
- Plant response rating, Rice (Flood) (rice): 0
- Kochia plant response rating (kochia [20]; [24]): 10
- Plant response rating, Kochia (kochia [20]; [25]): 0
- Plant response rating, Ryegrass, Italian (ryegrass, Italian [21]; 500 g ai/ha, postemergence): 10
- Plant response rating, Ryegrass, Italian (ryegrass, Italian [21]; Postemergence, 125 g ai/ha): 0
- Plant response rating, Corn (corn [22]; 500 g ai/ha, postemergence): 20
- Plant response rating, Corn (corn [22]; Postemergence, 125 g ai/ha): 10
- Ryegrass, Italian plant response rating (ryegrass, Italian [23]; [24]): 40
- Plant response rating, Ryegrass, Italian (ryegrass, Italian [23]; [25]): 30
